Test results as given in ChEMBL document CHEMBL1148659, “Discovery of potent and orally active MTP inhibitors as potential anti-obesity agents” (Bioorg Med Chem Lett, 2006).

Molecular target: T1, Microsomal triglyceride transfer protein large subunit (Homo sapiens) (UniProt P55157)
T1 sequence (whole entry): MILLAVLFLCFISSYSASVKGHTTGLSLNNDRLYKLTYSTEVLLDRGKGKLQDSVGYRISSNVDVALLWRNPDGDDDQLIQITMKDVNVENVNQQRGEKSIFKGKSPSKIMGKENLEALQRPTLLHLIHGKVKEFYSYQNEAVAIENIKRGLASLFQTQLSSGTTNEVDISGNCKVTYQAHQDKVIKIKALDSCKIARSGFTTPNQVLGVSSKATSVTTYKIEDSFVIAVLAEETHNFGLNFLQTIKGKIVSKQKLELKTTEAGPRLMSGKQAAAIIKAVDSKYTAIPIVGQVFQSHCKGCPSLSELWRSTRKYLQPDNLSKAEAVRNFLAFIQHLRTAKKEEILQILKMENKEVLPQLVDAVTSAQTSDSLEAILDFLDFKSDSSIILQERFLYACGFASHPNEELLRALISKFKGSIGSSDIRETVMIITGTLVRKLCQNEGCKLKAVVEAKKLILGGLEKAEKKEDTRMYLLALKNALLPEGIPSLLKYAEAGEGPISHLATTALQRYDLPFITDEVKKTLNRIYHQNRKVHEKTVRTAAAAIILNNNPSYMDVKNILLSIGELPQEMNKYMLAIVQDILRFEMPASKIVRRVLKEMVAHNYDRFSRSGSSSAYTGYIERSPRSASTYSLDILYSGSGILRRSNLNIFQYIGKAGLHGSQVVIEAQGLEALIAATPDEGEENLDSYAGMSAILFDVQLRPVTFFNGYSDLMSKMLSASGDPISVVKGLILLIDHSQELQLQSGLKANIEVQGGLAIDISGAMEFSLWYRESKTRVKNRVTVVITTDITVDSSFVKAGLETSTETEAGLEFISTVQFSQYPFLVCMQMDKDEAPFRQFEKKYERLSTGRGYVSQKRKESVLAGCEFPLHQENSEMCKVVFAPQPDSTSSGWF
Assay: Inhibition of intestinal MTP in rat by murine gut retention assay
Format: functional
Conditions: target entry is the homologue from another species

ED25	SMILES
3 mg/kg	Cc1cc(C(=O)N[C@H](C(=O)N2CCCC2)c2ccccc2)ccc1NC(=O)c1ccccc1-c1ccc(C(F)(F)F)cc1
6.93 mg/kg	O=C(N[C@H](C(=O)N1CCCC1)c1ccccc1)c1ccc(NC(=O)c2ccccc2-c2ccc(C(F)(F)F)cc2)nc1
